# Reference: publication PMC4459640 (European journal of pharmaceutical sciences : official …, 2014)
# Assays:
# [1] = tested on: HepG2 human hepatoma cells
# UGT2B7 = conditions: cited from earlier work
# opioid receptors [2] = conditions: ref Brown et al., 1985, Frölich et al., 2011, Zuckerman et al., 1999; cited from earlier work
# opioid receptors [3] = conditions: ref Brown et al., 1985, Frölich et al., 2011, Zuckerman et al., 1999; cited from earlier work; remark: listed apart in the source
# [4] = ref Brown et al., 1985, Frölich et al., 2011, Zuckerman et al., 1999; cited from earlier work
# [5] = human, rabbit, and rat; ref Frölich et al., 2011, Smith et al., 1973, Skarke and Lötsch, 2002; cited from earlier work
# [6] = morphine metabolites in human; ref Frölich et al., 2011, Skarke and Lötsch, 2002; cited from earlier work
# human SULT1A2 = human SULT1A2 (Homo sapiens, UniProt P50226); conditions: pH 7.5
# human SULT1A1 = human SULT1A1 (Homo sapiens, UniProt P50225); conditions: pH 7.5
# [7] = substrate: CN1CC[C@]23CCCC[C@H]2[C@H]1Cc1ccc(O)cc13; format: in vitro ADME, human; conditions: other: Michaelis-Menten, pH 7.5
# not read = substrate: Oc1ccc2c(c1)[C@@]13CCCC[C@@]1(O)[C@@H](C2)N(CC1CCC1)CC3; experiment: not read; conditions: other: Michaelis-Menten, pH 7.5
# human SULT1A2, sequence (P50226 whole entry): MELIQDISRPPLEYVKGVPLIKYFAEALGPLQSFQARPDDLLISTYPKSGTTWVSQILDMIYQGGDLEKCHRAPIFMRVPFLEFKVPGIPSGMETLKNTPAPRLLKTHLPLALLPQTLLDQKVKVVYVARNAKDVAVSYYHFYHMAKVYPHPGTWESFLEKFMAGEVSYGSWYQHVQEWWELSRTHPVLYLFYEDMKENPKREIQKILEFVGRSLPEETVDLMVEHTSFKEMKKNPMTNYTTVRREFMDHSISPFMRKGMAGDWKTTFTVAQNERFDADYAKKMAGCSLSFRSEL
# human SULT1A1, sequence (P50225 whole entry): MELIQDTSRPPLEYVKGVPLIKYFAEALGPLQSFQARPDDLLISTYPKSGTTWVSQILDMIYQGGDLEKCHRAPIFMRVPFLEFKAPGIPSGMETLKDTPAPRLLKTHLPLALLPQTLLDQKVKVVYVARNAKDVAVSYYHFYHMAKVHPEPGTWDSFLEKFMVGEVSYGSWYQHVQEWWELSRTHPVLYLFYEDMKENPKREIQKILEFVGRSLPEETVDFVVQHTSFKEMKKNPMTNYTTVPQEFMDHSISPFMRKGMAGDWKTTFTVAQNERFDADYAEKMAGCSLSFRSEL
molecule,measurement,setting,value
"CN1CC[C@]23c4c5ccc(O)c4O[C@H]2C(=O)CC[C@@]3(O)[C@H]1C5 [Oxymorphone, oxymorphone]",Efficiency of sulfation by HepG2 cells relative to the other three opioid drugs,[1],more efficiently
same,Km,UGT2B7,540 to 1360 µM
CN1CC[C@]23c4c5ccc(O)c4O[C@H]2[C@@H](OS(=O)(=O)O)C=C[C@H]3[C@H]1C5 [morphine-6-sulfate],Affinity toward opioid receptors,opioid receptors [2],comparable to those of morphine
same,Capability to activate the opioid receptors (ligand activity),opioid receptors [3],comparable to those of morphine
same,Analgesic effect compared with morphine,[4],greater analgesic effect than does morphine
"Oc1ccc2c(c1)[C@@]13CCCC[C@@]1(O)[C@@H](C2)N(CC1CCC1)CC3 [Butorphanol, butorphanol]",Efficiency of sulfation by HepG2 cells relative to the other three opioid drugs,[1],more efficiently
"CN1CC[C@]23c4c5ccc(OS(=O)(=O)O)c4O[C@H]2[C@@H](O)C=C[C@H]3[C@H]1C5 [morphine-3-sulfate, morphine-3-O-sulfate]",Affinity toward opioid receptors,opioid receptors [2],low affinity
same,Capability to activate the opioid receptors (ligand activity),opioid receptors [3],low capability to activate the receptors
same,Sulfate metabolite as share of the metabolites from urine,[5],~ 2%
CN1CC[C@]23c4c5ccc(O)c4O[C@H]2[C@@H](O[C@@H]2O[C@H](C(=O)O)[C@@H](O)[C@H](O)[C@H]2O)C=C[C@H]3[C@H]1C5 [morphine-glucuronide],Share of metabolite,[6],60–70 % of metabolite
"Oc1ccc2c3c1O[C@H]1[C@H](O)CC[C@@]4(O)[C@@H](C2)N(CC2CC2)CC[C@]314 [6βNaltrexol, 6β-naltrexol]","Specific activity, SULT1A2",human SULT1A2,0.08 ± 0.01 nmol/min/mg
same,"Specific activity, SULT1A1",human SULT1A1,0.21 ± 0.03 nmol/min/mg
"C=CCN1CC[C@]23c4c5ccc(O)c4O[C@H]2[C@@H](O)C=C[C@H]3[C@H]1C5 [Nalorphine, nalorphine]",Efficiency of sulfation by HepG2 cells relative to the other three opioid drugs,[1],more efficiently
human SULT2A1 (Homo sapiens) (protein) MSDDFLWFEGIAFPTMGFRSETLRKVRDEFVIRDEDVIILTYPKSGTNWLAEILCLMHSKGDAKWIQSVPIWERSPWVESEIGYTALSETESPRLFSSHLPIQLFPKSFFSSKAKVIYLMRNPRDVLVSGYFFWKNMKFIKKPKSWEEYFEWFCQGTVLYGSWFDHIHGWMPMREEKNFLLLSYEELKQDTGRTIEKICQFLGKTLEPEELNLILKNSSFQSMKENKMSNYSLLSVDYVVDKAQLLRKGVSGDWKNHFTVAQAEDFDKLFQEKMADLPRELFPWE,Km,[7],599.0 ± 60.7 µM
same,Vmax,[7],0.00032 µmol/min/mg
same,Km,not read,38.95 ± 1.21 µM
same,Vmax,not read,0.00104 µmol/min/mg
